Results on 17 compounds are retold here after US20250019387A1 (Frontier Medicines Corporation, priority 0001, published 2025).

As a reminder, the IC50 is the midpoint of a concentration-inhibition curve.

Sequence of KRAS G12C and cRAF (Ras-binding domain) interaction (P01116 other isoform, or with tags, fused parts or gaps G12C/C51S/C80L/C118S): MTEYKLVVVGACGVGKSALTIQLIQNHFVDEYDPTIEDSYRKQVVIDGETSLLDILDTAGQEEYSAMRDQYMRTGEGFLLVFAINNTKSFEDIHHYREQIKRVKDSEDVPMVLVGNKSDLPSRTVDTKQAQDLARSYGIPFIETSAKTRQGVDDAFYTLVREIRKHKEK

The target in this assay is KRAS G12C and cRAF (Ras-binding domain) interaction (Homo sapiens (Human), UniProt P01116, C118S/C51S/C80L/G12C). Put plainly: Inhibition of KRAS G12C and cRAF binding (AlphaScreen). The conditions noted are these: GMPPNP-loaded KRAS G12C, 19-20 hours incubation with compound; read-out: IC50 (Inhibition of KRAS G12C and cRAF Binding). In a few lines:
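Compounds (DMSO) preincubated 19-20 h at room temperature, then RBD with streptavidin donor and glutathione acceptor beads added in 25 mM Hepes pH 7.4, 150 mM NaCl, 5 mM MgCl2, 0.01% Triton X-100, 2% DMSO for 60-90 min. Emission 570 nm (excitation 680 nm); IC50 by 4-parameter fit. Counter-screen used biotin-AviTag-GST instead of RBD.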
For `Cc1nccc(/C=C/C(=O)N2CCC[C@@H](N(C)c3nc(OC[C@@]45CCCN4C[C@H](F)C5)nc4c(F)c(-c5cccc6cccc(Cl)c56)ncc34)C2)n1` [Example 198, (E)-1-((R)-3-((7-(8-chloronaphthalen-1-yl)-8-fluoro-2-(((2R,7aS)-2-fluorotetrahydro-1H-pyrrolizin-7a(5H)-yl)methoxy)pyrido[4,3-d]pyrimidin-4-yl)(methyl)amino)piperidin-1-yl)-3-(2-methylpyrimidin-4-yl)prop-2-en-1-one], the IC50 is over 500 nM.

`CN1CC[C@@H]1/C=C/C(=O)N1C[C@H](F)[C@@H](N(C)c2nc(OC[C@@]34CCCN3C[C@H](F)C4)nc3c(F)c(-c4cccc5ccc(F)c(F)c45)ncc23)C1` [Example 199, (E)-1-((3S,4S)-3-((7-(7,8-difluoronaphthalen-1-yl)-8-fluoro-2-(((2R,7aS)-2-fluorotetrahydro-1H-pyrrolizin-7a(5H)-yl)methoxy)pyrido[4,3-d]pyrimidin-4-yl)(methyl)amino)-4-fluoropyrrolidin-1-yl)-3-((R)-1-methylazetidin-2-yl)prop-2-en-1-one]: the IC50 is under 10 nM. Under `C#Cc1c(F)ccc2cccc(-c3ncc4c(N(C)[C@@H]5CCN(C(=O)/C=C/[C@H]6CCN6C)C5)nc(OC[C@@]56CCCN5C[C@H](F)C6)nc4c3F)c12` [Example 200, (E)-1-((R)-3-((7-(8-ethynyl-7-fluoronaphthalen-1-yl)-8-fluoro-2-(((2R,7aS)-2-fluorohexahydro-1H-pyrrolizin-7a-yl)methoxy)pyrido[4,3-d]pyrimidin-4-yl)(methyl)amino)pyrrolidin-1-yl)-3-((R)-1-methylazetidin-2-yl)prop-2-en-1-one] stands under 10 nM.

As for `C#Cc1c(F)ccc2cccc(-c3ncc4c(N(C)[C@@H]5CCN(C(=O)/C=C/CN(C)C)C5)nc(OC[C@@]56CCCN5C[C@H](F)C6)nc4c3F)c12` [Example 201, (E)-4-(dimethylamino)-1-((R)-3-((7-(8-ethynyl-7-fluoronaphthalen-1-yl)-8-fluoro-2-(((2R,7aS)-2-fluorohexahydro-1H-pyrrolizin-7a-yl)methoxy)pyrido[4,3-d]pyrimidin-4-yl)(methyl)amino)pyrrolidin-1-yl)but-2-en-1-one], the IC50 is under 10 nM. Under `Cc1c(F)ccc2cccc(-c3ncc4c(N(C)[C@@H]5CCN(C(=O)/C=C/CN(C)C)C5)nc(OC[C@@]56CCCN5C[C@H](F)C6)nc4c3F)c12` [Example 202, (E)-4-(dimethylamino)-1-((R)-3-((8-fluoro-7-(7-fluoro-8-methylnaphthalen-1-yl)-2-(((2R,7aS)-2-fluorotetrahydro-1H-pyrrolizin-7a(5H)-yl)methoxy)pyrido[4,3-d]pyrimidin-4-yl)(methyl)amino)pyrrolidin-1-yl)but-2-en-1-one] stands 10 to 100 nM; under `Cc1cc(/C=C/C(=O)N2CC[C@@H](N(C)c3nc(OC[C@@]45CCCN4C[C@H](F)C5)nc4c(F)c(-c5cccc6ccc(F)c(F)c56)ncc34)C2)nc(C)n1` [Example 203, (E)-1-((R)-3-((7-(7,8-difluoronaphthalen-1-yl)-8-fluoro-2-(((2R,7aS)-2-fluorohexahydro-1H-pyrrolizin-7a-yl)methoxy)pyrido[4,3-d]pyrimidin-4-yl)(methyl)amino)pyrrolidin-1-yl)-3-(2,6-dimethylpyrimidin-4-yl)prop-2-en-1-one], 10 to 100 nM.

As to `Cc1cc(/C=C/C(=O)N2CC[C@@H](N(C)c3nc(OC[C@@]45CCCN4C[C@H](F)C5)nc4c(F)c(-c5cccc6cccc(Cl)c56)ncc34)C2)nc(C)n1` [Example 204, (E)-1-((R)-3-((7-(8-chloronaphthalen-1-yl)-8-fluoro-2-(((2R,7aS)-2-fluorohexahydro-1H-pyrrolizin-7a-yl)methoxy)pyrido[4,3-d]pyrimidin-4-yl)(methyl)amino)pyrrolidin-1-yl)-3-(2,6-dimethylpyrimidin-4-yl)prop-2-en-1-one], the concentration for half-maximal inhibition (IC50) was 100 to 500 nM. Under `Cc1c(F)ccc2cccc(-c3ncc4c(N(C)[C@@H]5CCN(C(=O)/C=C/[C@H]6CCN6C)C5)nc(OC[C@@]56CCCN5C[C@H](F)C6)nc4c3F)c12` [Example 206, (E)-1-((R)-3-((8-fluoro-7-(7-fluoro-8-methylnaphthalen-1-yl)-2-(((2R,7aS)-2-fluorotetrahydro-1H-pyrrolizin-7a(5H)-yl)methoxy)pyrido[4,3-d]pyrimidin-4-yl)(methyl)amino)pyrrolidin-1-yl)-3-((R)-1-methylazetidin-2-yl)prop-2-en-1-one] stands 10 to 100 nM; under `C#Cc1c(F)ccc2cccc(-c3ncc4c(N(C)[C@@H]5CCN(C(=O)/C=C/c6cc(C)nc(C)n6)C5)nc(OC[C@@]56CCCN5C[C@H](F)C6)nc4c3F)c12` [Example 207, (E)-3-(2,6-dimethylpyrimidin-4-yl)-1-((R)-3-((7-(8-ethynyl-7-fluoronaphthalen-1-yl)-8-fluoro-2-(((2R,7aS)-2-fluorotetrahydro-1H-pyrrolizin-7a(5H)-yl)methoxy)pyrido[4,3-d]pyrimidin-4-yl)(methyl)amino)pyrrolidin-1-yl)prop-2-en-1-one], 10 to 100 nM; under `CN(c1nc(OC[C@@]23CCCN2C[C@H](F)C3)nc2c(F)c(-c3cccc4cccc(Cl)c34)ncc12)[C@@H]1CCN(C(=O)/C=C/c2nc(C3(F)CCC3)no2)C1` [Example 208, (E)-1-((R)-3-((7-(8-chloronaphthalen-1-yl)-8-fluoro-2-(((2R,7aS)-2-fluorotetrahydro-1H-pyrrolizin-7a(5H)-yl)methoxy)pyrido[4,3-d]pyrimidin-4-yl)(methyl)amino)pyrrolidin-1-yl)-3-(3-(1-fluorocyclobutyl)-1,2,4-oxadiazol-5-yl)prop-2-en-1-one], under 10 nM. Under `CN(c1nc(OC[C@@]23CCCN2C[C@H](F)C3)nc2c(F)c(-c3cccc4ccc(F)c(Cl)c34)ncc12)[C@@H]1CCN(C(=O)C#CCN2CC(F)(F)C2)C1` [Example 209, 1-((R)-3-((7-(8-chloro-7-fluoronaphthalen-1-yl)-8-fluoro-2-(((2R,7aS)-2-fluorohexahydro-1H-pyrrolizin-7a-yl)methoxy)pyrido[4,3-d]pyrimidin-4-yl)(methyl)amino)pyrrolidin-1-yl)-4-(3,3-difluoroazetidin-1-yl)but-2-yn-1-one] stands 10 to 100 nM; under `CC(C)N1CC[C@@H]1/C=C/C(=O)N1CC[C@@H](N(C)c2nc(OC[C@@]34CCCN3C[C@H](F)C4)nc3c(F)c(-c4cccc5ccc(F)c(Cl)c45)ncc23)C1` [Example 211, (E)-1-((R)-3-((7-(8-chloro-7-fluoronaphthalen-1-yl)-8-fluoro-2-(((2R,7aS)-2-fluorotetrahydro-1H-pyrrolizin-7a(5H)-yl)methoxy)pyrido[4,3-d]pyrimidin-4-yl)(methyl)amino)pyrrolidin-1-yl)-3-((R)-1-isopropylazetidin-2-yl)prop-2-en-1-one], 10 to 100 nM. To `COCCN1CC[C@@H]1/C=C/C(=O)N1CC[C@@H](N(C)c2nc(OC[C@@]34CCCN3C[C@H](F)C4)nc3c(F)c(-c4cccc5ccc(F)c(Cl)c45)ncc23)C1` [Example 212, (E)-1-((R)-3-((7-(8-chloro-7-fluoronaphthalen-1-yl)-8-fluoro-2-(((2R,7aS)-2-fluorotetrahydro-1H-pyrrolizin-7a(5H)-yl)methoxy)pyrido[4,3-d]pyrimidin-4-yl)(methyl)amino)pyrrolidin-1-yl)-3-((R)-1-(2-methoxyethyl)azetidin-2-yl)prop-2-en-1-one] belongs 10 to 100 nM; to `CN(c1nc(OC[C@@]23CCCN2C[C@H](F)C3)nc2c(F)c(-c3cccc4ccc(F)c(Cl)c34)ncc12)[C@@H]1CCN(C(=O)/C=C/[C@H]2CCN2CC2COC2)C1` [Example 213, (E)-1-((R)-3-((7-(8-chloro-7-fluoronaphthalen-1-yl)-8-fluoro-2-(((2R,7aS)-2-fluorotetrahydro-1H-pyrrolizin-7a(5H)-yl)methoxy)pyrido[4,3-d]pyrimidin-4-yl)(methyl)amino)pyrrolidin-1-yl)-3-((R)-1-(oxetan-3-ylmethyl)azetidin-2-yl)prop-2-en-1-one], 10 to 100 nM.

For `Cc1nsc(/C=C/C(=O)N2C[C@H](F)[C@@H](N(C)c3nc(OC[C@@]45CCCN4C[C@H](F)C5)nc4c(F)c(-c5cccc6cccc(Cl)c56)ncc34)C2)n1` [Example 215, (E)-1-((3S,4S)-3-((7-(8-chloronaphthalen-1-yl)-8-fluoro-2-(((2R,7aS)-2-fluorohexahydro-1H-pyrrolizin-7a-yl)methoxy)pyrido[4,3-d]pyrimidin-4-yl)(methyl)amino)-4-fluoropyrrolidin-1-yl)-3-(3-methyl-1,2,4-thiadiazol-5-yl)prop-2-en-1-one], the IC50 is 100 to 500 nM.

Take `Cc1nccc(/C=C/C(=O)N2C[C@H](F)[C@@H](N(C)c3nc(OC[C@@]45CCCN4C[C@H](F)C5)nc4c(F)c(-c5cccc6cccc(Cl)c56)ncc34)C2)n1` [Example 216, (E)-1-((3S,4S)-3-((7-(8-chloronaphthalen-1-yl)-8-fluoro-2-(((2R,7aS)-2-fluorotetrahydro-1H-pyrrolizin-7a(5H)-yl)methoxy)pyrido[4,3-d]pyrimidin-4-yl)(methyl)amino)-4-fluoropyrrolidin-1-yl)-3-(2-methylpyrimidin-4-yl)prop-2-en-1-one]: the IC50 lay within 100 to 500 nM. For `CN(c1nc(OC[C@@]23CCCN2C[C@H](F)C3)nc2c(F)c(-c3cccc4cccc(Cl)c34)ncc12)[C@@H]1CN(C(=O)/C=C/c2nc(C(C)(C)O)no2)C[C@H]1F` [Example 217, (E)-1-((3R,4R)-3-((7-(8-chloronaphthalen-1-yl)-8-fluoro-2-(((2R,7aS)-2-fluorotetrahydro-1H-pyrrolizin-7a(5H)-yl)methoxy)pyrido[4,3-d]pyrimidin-4-yl)(methyl)amino)-4-fluoropyrrolidin-1-yl)-3-(3-(2-hydroxypropan-2-yl)-1,2,4-oxadiazol-5-yl)prop-2-en-1-one], the IC50 is over 500 nM.
